Measured values taken from ChEMBL document CHEMBL1201862, “PubChem BioAssay data set” (2004).
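Dose response: 5 concentrations. Exposure: 48 h. Format: 96-well plates. Endpoint: linear interpolation; highest concentration if not reached. The concentration for 50% growth inhibition is given as GI50.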 Activity calls are given as the source filed them. Cut-off read from the data, not from the text of the source: active = GI50 up to about 1.1 µM and inactive = higher.

Tests used:
Experiment in all cases: NCI tumour cell line growth inhibition, 48 h
[1] = system: RPMI-8226
[2] = system: BT-549
[3] = system: OVCAR-3
[4] = system: PC-3
[5] = system: RXF 393
[6] = system: SNB-19
[7] = system: MDA-MB-435
[8] = system: HCC 2998
[9] = system: HOP-92
[10] = system: NCI/ADR-RES
[11] = system: SF-539
[12] = system: KM12
[13] = system: U-251
[14] = system: SN12C
[15] = system: CCRF-CEM
[16] = system: SK-MEL-28
[17] = system: K562
[18] = system: DU-145
[19] = system: HOP-62
[20] = system: OVCAR-5
[21] = system: HCT-15
[22] = system: OVCAR-8
[23] = system: SK-MEL-5
[24] = system: ACHN
[25] = system: EKVX
[26] = system: Malme-3M
[27] = system: SR
[28] = system: 786-0
[29] = system: SK-OV-3
[30] = system: COLO 205
[31] = system: M14
[32] = system: NCI-H460
[33] = system: HT-29
[34] = system: HCT-116
[35] = system: LOX IMVI
[36] = system: MCF7
[37] = system: IGROV-1
[38] = system: SK-MEL-2
[39] = system: SF-295
[40] = system: CAKI-1
[41] = system: NCI-H522
[42] = system: OVCAR-4
[43] = system: NCI-H226
[44] = system: TK-10
[45] = system: A498
[46] = system: Hs-578T
[47] = system: MDA-N
[48] = system: T47D
[49] = system: UACC-62
[50] = system: MOLT-4
[51] = system: NCI-H23
[52] = system: SF-268
[53] = system: UACC-257
[54] = system: SNB-75
[55] = system: A549
[56] = system: SW-620
[57] = system: MDA-MB-231

SMILES: CCCCC1(N=[N+]=[N-])C(=O)c2cccc3c2N(CCC3)C1=O (configuration not stated)
- GI50 [1]: > 100 µM (inactive)
- GI50 [2]: > 100 µM (inactive)
- GI50 [3]: 44.6 µM (inactive)
- GI50 [4]: > 100 µM (inactive)
- GI50 [5]: > 100 µM (inactive)
- GI50 [6]: > 100 µM (inactive)
- GI50 [7]: > 100 µM (inactive)
- GI50 [8]: > 100 µM (inactive)
- GI50 [9]: > 100 µM (inactive)
- GI50 [10]: 31 µM (inactive)
- GI50 [11]: > 100 µM (inactive)
- GI50 [12]: > 100 µM (inactive)
- GI50 [13]: > 100 µM (inactive)
- GI50 [14]: > 100 µM (inactive)
- GI50 [15]: 91.6 µM (inactive)
- GI50 [16]: > 100 µM (inactive)
- GI50 [17]: > 100 µM (inactive)
- GI50 [18]: > 100 µM (inactive)
- GI50 [19]: > 100 µM (inactive)
- GI50 [20]: > 100 µM (inactive)
- GI50 [21]: > 100 µM
- GI50 [22]: > 100 µM (inactive)
- GI50 [23]: > 100 µM (inactive)
- GI50 [24]: > 100 µM (inactive)
- GI50 [25]: > 100 µM (inactive)
- GI50 [26]: > 100 µM (inactive)
- GI50 [27]: > 100 µM (inactive)
- GI50 [28]: > 100 µM (inactive)
- GI50 [29]: > 100 µM (inactive)
- GI50 [30]: > 100 µM (inactive)
- GI50 [31]: > 100 µM (inactive)
- GI50 [32]: > 100 µM (inactive)
- GI50 [33]: > 100 µM (inactive)
- GI50 [34]: > 100 µM (inactive)
- GI50 [35]: > 100 µM (inactive)
- GI50 [36]: > 100 µM (inactive)
- GI50 [37]: > 100 µM (inactive)
- GI50 [38]: > 100 µM (inactive)
- GI50 [39]: > 100 µM (inactive)
- GI50 [40]: > 100 µM (inactive)
- GI50 [41]: > 100 µM (inactive)
- GI50 [42]: > 100 µM (inactive)
- GI50 [43]: > 100 µM (inactive)
- GI50 [44]: > 100 µM (inactive)
- GI50 [45]: > 100 µM (inactive)
- GI50 [46]: > 100 µM (inactive)
- GI50 [47]: > 100 µM (inactive)
- GI50 [48]: > 100 µM (inactive)
- GI50 [49]: 69.2 µM (inactive)
- GI50 [50]: > 100 µM (inactive)
- GI50 [51]: > 100 µM (inactive)
- GI50 [52]: > 100 µM (inactive)
- GI50 [53]: > 100 µM (inactive)
- GI50 [54]: > 100 µM (inactive)
- GI50 [55]: > 100 µM (inactive)
- GI50 [56]: > 100 µM (inactive)
- GI50 [57]: > 100 µM (inactive)
